Tests used:
Assay in all cases: KINOMEscan
Assay type in all cases: binding
Conditions in all cases: 1 μM
[1] = molecular target: RPS6KA5(Kin.Dom.2-C-terminal) (Homo sapiens, UniProt O75582)
EPHA1 = EPHA1 (Homo sapiens, UniProt P21709)
MET(Y1235D) = molecular target: T1, MET(Y1235D) (Homo sapiens, UniProt P08581, Y1235D)
T1 construct: purchased Eurofins DiscoverX Corporation

PIK3C2G = PIK3C2G (Homo sapiens, UniProt O75747)
STK35 = STK35 (Homo sapiens, UniProt Q8TDR2)
PAK3 = PAK3 (Homo sapiens, UniProt O75914)
ALK = ALK (Homo sapiens, UniProt Q9UM73)
TNNI3K = molecular target: T2, TNNI3K (Homo sapiens, UniProt Q59H18)
T2 construct: purchased Eurofins DiscoverX Corporation

FYN = molecular target: T3, FYN (Homo sapiens, UniProt P06241)
T3 construct: purchased Eurofins DiscoverX Corporation

PKN2 = PKN2 (Homo sapiens, UniProt Q16513)
Chain of PKN2 (Q16513 whole entry): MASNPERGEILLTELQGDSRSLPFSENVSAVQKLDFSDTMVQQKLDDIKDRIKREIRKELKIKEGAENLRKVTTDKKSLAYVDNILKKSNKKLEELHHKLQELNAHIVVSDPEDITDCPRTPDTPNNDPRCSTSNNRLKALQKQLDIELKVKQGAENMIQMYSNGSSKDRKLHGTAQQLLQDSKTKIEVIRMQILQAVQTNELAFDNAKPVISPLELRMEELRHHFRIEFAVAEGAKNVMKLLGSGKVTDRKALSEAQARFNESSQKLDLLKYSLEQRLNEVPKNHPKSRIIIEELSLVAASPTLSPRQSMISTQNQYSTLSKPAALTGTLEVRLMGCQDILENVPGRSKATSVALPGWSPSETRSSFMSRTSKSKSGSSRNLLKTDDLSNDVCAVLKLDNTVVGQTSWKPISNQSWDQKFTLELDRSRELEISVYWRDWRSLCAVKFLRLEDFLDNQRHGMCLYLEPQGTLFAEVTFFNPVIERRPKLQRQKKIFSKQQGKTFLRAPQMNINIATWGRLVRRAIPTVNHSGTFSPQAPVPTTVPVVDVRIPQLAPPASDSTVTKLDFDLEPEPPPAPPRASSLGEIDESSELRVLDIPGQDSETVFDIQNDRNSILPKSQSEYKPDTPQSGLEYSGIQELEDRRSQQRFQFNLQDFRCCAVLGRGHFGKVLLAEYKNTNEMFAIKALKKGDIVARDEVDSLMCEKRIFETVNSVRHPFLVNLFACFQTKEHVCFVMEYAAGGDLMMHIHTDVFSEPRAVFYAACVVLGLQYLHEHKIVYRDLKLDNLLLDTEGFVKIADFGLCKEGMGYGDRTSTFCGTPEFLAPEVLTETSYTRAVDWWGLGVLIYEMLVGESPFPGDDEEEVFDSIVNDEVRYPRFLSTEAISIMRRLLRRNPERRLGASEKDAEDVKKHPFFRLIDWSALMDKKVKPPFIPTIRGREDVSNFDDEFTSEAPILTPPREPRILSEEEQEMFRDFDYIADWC

MAP4K4 = molecular target: T4, MAP4K4 (Homo sapiens, UniProt O95819)
T4 construct: purchased Eurofins DiscoverX Corporation

LIMK1 = molecular target: T5, LIMK1 (Homo sapiens, UniProt P53667)
T5 construct: purchased Eurofins DiscoverX Corporation

TEC = molecular target: T6, TEC (Homo sapiens, UniProt P42680)
T6 construct: purchased Eurofins DiscoverX Corporation
T6 sequence (P42680 whole entry): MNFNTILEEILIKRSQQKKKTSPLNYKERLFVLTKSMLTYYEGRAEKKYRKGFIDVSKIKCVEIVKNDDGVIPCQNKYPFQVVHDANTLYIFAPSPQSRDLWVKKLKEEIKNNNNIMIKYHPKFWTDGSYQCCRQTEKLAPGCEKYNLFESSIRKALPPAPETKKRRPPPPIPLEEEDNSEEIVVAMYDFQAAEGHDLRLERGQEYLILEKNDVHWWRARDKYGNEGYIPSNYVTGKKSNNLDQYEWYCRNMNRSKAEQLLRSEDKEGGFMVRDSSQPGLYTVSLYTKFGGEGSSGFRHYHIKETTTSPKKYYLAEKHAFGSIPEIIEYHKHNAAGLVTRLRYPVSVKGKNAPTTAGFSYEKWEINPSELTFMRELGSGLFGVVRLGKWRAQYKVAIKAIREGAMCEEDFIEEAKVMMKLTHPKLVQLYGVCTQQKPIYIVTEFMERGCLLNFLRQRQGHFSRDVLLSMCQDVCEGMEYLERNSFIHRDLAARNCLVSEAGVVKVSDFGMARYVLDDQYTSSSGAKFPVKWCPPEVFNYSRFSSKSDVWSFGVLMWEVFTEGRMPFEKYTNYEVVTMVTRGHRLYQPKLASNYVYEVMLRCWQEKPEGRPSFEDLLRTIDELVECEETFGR

EGFR(G719S) = EGFR(G719S) (Homo sapiens, UniProt P00533, G719S)
[2] = molecular target: T7, ABL1(F317L)-phosphorylated (Homo sapiens, UniProt P00519, F317L)
T7 construct: purchased Eurofins DiscoverX Corporation

SRPK1 = SRPK1 (Homo sapiens, UniProt Q96SB4)
Chain of SRPK1 (Q96SB4 whole entry): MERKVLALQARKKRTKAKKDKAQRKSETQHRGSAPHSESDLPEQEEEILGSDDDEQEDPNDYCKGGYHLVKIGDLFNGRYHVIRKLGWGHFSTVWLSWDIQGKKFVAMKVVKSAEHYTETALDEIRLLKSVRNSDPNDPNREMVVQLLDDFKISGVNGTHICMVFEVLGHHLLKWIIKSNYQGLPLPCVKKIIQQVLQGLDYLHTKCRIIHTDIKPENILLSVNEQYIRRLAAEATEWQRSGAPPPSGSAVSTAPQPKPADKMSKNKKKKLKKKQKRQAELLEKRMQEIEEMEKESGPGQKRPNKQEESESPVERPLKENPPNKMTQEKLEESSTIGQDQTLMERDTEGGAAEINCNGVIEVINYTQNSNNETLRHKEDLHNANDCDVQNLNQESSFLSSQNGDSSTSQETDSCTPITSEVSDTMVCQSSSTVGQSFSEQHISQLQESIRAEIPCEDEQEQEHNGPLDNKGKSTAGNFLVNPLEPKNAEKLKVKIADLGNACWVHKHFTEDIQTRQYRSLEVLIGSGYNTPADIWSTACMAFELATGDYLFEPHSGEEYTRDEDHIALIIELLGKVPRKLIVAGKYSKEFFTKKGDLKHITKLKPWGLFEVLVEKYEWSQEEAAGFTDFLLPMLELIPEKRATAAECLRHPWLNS

EPHA6 = EPHA6 (Homo sapiens, UniProt Q9UF33)
[3] = molecular target: T8, JAK2(JH1domain-catalytic) (Homo sapiens, UniProt O60674)
T8 construct: JAK2(JH1domain-catalytic); purchased Eurofins DiscoverX (KINOMEscan)

DDR2 = molecular target: T9, DDR2 (Homo sapiens, UniProt Q16832)
T9 construct: purchased Eurofins DiscoverX Corporation

BMX = molecular target: T10, BMX (Homo sapiens, UniProt P51813)
T10 construct: purchased Eurofins DiscoverX Corporation (KINOMEscan)

KIT(V559D) = molecular target: T11, KIT(V559D) (Homo sapiens, UniProt P10721, V559D)
T11 construct: purchased Eurofins DiscoverX Corporation

TAOK3 = molecular target: T12, TAOK3 (Homo sapiens, UniProt Q9H2K8)
T12 construct: purchased Eurofins DiscoverX Corporation

ACVR1B = ACVR1B (Homo sapiens, UniProt P36896)
MAP3K3 = molecular target: T13, MAP3K3 (Homo sapiens, UniProt Q99759)
T13 construct: purchased Eurofins DiscoverX Corporation
T13 sequence (Q99759 whole entry): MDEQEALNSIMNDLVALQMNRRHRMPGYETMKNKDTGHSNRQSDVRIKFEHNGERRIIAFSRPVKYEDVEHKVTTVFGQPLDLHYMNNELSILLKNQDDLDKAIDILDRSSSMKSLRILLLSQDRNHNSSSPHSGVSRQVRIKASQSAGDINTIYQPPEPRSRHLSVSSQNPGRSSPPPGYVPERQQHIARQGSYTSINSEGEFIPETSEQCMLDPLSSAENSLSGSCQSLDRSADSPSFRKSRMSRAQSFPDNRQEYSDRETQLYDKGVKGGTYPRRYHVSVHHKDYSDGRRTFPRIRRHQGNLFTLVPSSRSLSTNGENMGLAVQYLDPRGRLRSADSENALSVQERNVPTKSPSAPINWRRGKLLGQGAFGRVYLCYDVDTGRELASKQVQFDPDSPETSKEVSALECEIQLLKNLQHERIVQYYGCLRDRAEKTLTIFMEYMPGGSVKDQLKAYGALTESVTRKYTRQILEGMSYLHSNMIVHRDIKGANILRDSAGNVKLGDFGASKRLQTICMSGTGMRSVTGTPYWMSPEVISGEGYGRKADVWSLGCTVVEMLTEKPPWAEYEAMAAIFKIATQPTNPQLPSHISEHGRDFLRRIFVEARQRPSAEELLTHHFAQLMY

FER = FER (Homo sapiens, UniProt P16591)
ERK1 = ERK1 (Homo sapiens, UniProt P27361)
SRPK3 = SRPK3 (Homo sapiens, UniProt Q9UPE1)
DYRK2 = molecular target: T14, DYRK2 (Homo sapiens, UniProt Q92630)
T14 construct: purchased Eurofins DiscoverX Corporation

S6K1 = S6K1 (Homo sapiens, UniProt P23443)
KIT(D816V) = molecular target: T15, KIT(D816V) (Homo sapiens, UniProt P10721, D816V)
T15 construct: purchased Eurofins DiscoverX (KINOMEscan)

EGFR(L858R+T790M) = EGFR(L858R+T790M) (Homo sapiens, UniProt P00533, L858R/T790M)
RIPK2 = RIPK2 (Homo sapiens, UniProt O43353)
EPHB2 = EPHB2 (Homo sapiens, UniProt P29323)
Chain of EPHB2 (P29323 19-1055): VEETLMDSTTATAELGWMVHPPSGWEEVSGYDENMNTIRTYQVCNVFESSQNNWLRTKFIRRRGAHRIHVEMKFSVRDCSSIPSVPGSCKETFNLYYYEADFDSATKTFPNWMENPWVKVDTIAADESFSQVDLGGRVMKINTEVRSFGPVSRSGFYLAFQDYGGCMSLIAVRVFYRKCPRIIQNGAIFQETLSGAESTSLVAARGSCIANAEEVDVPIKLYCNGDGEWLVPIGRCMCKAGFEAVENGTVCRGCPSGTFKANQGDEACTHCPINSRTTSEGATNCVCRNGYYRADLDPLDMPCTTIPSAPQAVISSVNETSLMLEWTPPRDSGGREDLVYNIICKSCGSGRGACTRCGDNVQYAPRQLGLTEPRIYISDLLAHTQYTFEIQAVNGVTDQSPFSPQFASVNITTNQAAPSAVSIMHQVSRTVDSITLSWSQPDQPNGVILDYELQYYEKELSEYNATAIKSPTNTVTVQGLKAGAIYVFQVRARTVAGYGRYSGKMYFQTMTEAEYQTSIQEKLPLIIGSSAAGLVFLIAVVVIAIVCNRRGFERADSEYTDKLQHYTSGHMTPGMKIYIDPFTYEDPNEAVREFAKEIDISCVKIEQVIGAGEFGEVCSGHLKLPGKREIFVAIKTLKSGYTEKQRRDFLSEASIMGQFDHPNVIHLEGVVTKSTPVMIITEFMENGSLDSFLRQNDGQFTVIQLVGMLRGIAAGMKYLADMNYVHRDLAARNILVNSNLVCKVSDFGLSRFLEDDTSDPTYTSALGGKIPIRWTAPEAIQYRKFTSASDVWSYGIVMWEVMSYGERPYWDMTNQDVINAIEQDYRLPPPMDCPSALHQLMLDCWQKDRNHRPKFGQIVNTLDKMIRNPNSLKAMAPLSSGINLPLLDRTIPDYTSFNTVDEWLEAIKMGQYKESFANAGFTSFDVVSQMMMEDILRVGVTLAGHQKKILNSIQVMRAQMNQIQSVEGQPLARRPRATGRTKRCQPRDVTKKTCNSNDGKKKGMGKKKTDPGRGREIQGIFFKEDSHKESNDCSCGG

MYLK = molecular target: T16, MYLK (Homo sapiens, UniProt Q15746)
T16 construct: purchased Eurofins DiscoverX Corporation

WNK3 = WNK3 (Homo sapiens, UniProt Q9BYP7)
KIT(V559D+T670I) = molecular target: T17, KIT(V559D+T670I) (Homo sapiens, UniProt P10721, T670I/V559D)
T17 construct: purchased Eurofins DiscoverX Corporation

MST2 = molecular target: T18, MST2 (Homo sapiens, UniProt Q13188)
T18 construct: purchased Eurofins DiscoverX Corporation

BIKE = BIKE (Homo sapiens, UniProt Q9NSY1)
Chain of BIKE (Q9NSY1 whole entry): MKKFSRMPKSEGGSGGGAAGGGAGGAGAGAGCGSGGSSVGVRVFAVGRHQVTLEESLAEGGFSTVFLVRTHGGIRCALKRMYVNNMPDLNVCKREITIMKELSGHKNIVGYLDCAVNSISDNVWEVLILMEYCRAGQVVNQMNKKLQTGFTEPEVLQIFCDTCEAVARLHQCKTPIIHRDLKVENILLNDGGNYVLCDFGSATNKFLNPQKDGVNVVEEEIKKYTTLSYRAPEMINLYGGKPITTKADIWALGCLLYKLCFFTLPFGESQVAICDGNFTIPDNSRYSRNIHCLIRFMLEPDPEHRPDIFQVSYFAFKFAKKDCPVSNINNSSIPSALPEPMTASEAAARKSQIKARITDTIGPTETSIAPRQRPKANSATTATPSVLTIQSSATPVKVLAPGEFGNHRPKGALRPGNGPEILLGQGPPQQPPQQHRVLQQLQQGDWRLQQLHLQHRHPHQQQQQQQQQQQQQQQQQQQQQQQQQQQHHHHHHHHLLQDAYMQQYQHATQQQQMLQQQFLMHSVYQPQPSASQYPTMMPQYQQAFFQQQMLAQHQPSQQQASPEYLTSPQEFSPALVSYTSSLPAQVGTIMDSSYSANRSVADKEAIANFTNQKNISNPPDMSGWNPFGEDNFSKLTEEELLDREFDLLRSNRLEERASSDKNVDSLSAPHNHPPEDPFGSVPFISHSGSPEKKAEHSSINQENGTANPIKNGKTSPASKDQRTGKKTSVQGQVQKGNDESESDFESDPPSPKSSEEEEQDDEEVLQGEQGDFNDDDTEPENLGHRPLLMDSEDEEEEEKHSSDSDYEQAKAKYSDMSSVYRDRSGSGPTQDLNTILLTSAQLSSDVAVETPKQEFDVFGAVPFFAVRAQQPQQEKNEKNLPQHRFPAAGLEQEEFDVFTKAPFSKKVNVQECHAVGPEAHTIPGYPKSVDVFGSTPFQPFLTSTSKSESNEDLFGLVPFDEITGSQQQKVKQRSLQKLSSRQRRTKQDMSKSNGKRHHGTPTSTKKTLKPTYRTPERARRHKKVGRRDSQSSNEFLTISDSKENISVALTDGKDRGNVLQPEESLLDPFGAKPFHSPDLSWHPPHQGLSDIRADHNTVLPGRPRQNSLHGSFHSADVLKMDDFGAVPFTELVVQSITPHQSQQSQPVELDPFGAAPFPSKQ

DCAMKL1 = molecular target: T19, DCAMKL1 (Homo sapiens, UniProt O15075)
T19 construct: purchased Eurofins DiscoverX Corporation

IRAK1 = molecular target: T20, IRAK1 (Homo sapiens, UniProt P51617)
T20 construct: purchased Eurofins DiscoverX (KINOMEscan)

ASK1 = ASK1 (Homo sapiens, UniProt Q99683)

For `C=CC(=O)Nc1ccc(OC)c(Nc2cc(-c3[nH]c(CC)nc3-c3cccc(NC(=O)c4cccc5c4NC(=O)c4ccccc4N5)c3)ccn2)c1` [Compound 4], the POC [1] was 100% of control, the POC (EPHA1) was 100% of control and the POC (MET(Y1235D)) was 97% of control. The POC (PIK3C2G) was 50% of control, the POC (STK35) was 69% of control and the POC (PAK3) was 70% of control. The POC (ALK) was 100% of control, the POC (TNNI3K) was 89% of control and the POC (FYN) was 64% of control. The POC (PKN2) was 100% of control, the POC (MAP4K4) was 6.1% of control and the POC (LIMK1) was 79% of control. The POC (TEC) was 45% of control, the POC (EGFR(G719S)) was 13% of control and the POC [2] was 85% of control. For the same compound, the POC (SRPK1) was 100% of control, the POC (EPHA6) was 90% of control and the POC [3] was 86% of control. The POC (DDR2) was 100% of control, the POC (BMX) was 66% of control and the POC (KIT(V559D)) was 100% of control. For the same compound, the POC (TAOK3) was 95% of control, the POC (ACVR1B) was 85% of control and the POC (MAP3K3) was 51% of control. The POC (FER) was 36% of control, the POC (ERK1) was 99% of control and the POC (SRPK3) was 100% of control. The POC (DYRK2) was 75% of control, the POC (S6K1) was 100% of control and the POC (KIT(D816V)) was 94% of control. For the same compound, the POC (EGFR(L858R+T790M)) was 8.3% of control, the POC (RIPK2) was 62% of control and the POC (EPHB2) was 100% of control. The POC (MYLK) was 84% of control, the POC (WNK3) was 78% of control and the POC (KIT(V559D+T670I)) was 95% of control. For the same compound, the POC (MST2) was 14% of control, the POC (BIKE) was 100% of control and the POC (DCAMKL1) was 100% of control. For the same compound, the POC (IRAK1) was 85% of control and the POC (ASK1) was 100% of control.
